Data reported in US20170190671A1, “BIS(ARYL)CATECHOL DERIVATIVES AS HERBICIDES” (E I DU PONT DE NEMOURS AND COMPANY, priority 2014, published 2017).

Key:
Test in all cases: Test C preemergence
Format in all cases: in vivo
[1] = tested on: Italian ryegrass (Lolium multiflorum); conditions: Lolium multiflorum, pre-emergence, 336 h, scale 0 to 100, read-out: Plant response rating, Ryegrass, Italian
How it was run: (§1)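 Greenhouse test; preemergence on seeded loam-sand soil or spray on 1- to 4-leaf plants; solvent + surfactant vehicle; 13-15 day hold; visual comparison with controls; 0 (no effect)-100 (complete control).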

[2] = tested on: barnyardgrass (Echinochloa crus-galli); conditions: Echinochloa crus-galli, pre-emergence, read-out: Plant response rating, Barnyardgrass
How it was run: as §1

corn (Zea mays) = conditions: Zea mays, pre-emergence, 336 h, scale 0 to 100
How it was run: as §1

[3] = tested on: galium (catchweed bedstraw, Galium aparine); conditions: Galium, pre-emergence, 336 h, scale 0 to 100, read-out: Plant response rating, Galium
How it was run: as §1

[4] = tested on: giant foxtail (Setaria faberii); conditions: Setaria faberi, pre-emergence, 336 h, scale 0 to 100, read-out: Plant response rating, Foxtail, Giant
How it was run: as §1

[5] = tested on: johnsongrass (Sorghum halepense); conditions: Sorghum halepense, pre-emergence, 336 h, scale 0 to 100, read-out: Plant response rating, Johnsongrass
How it was run: as §1

[6] = tested on: lambsquarters (Chenopodium album); conditions: Chenopodium album, pre-emergence, 336 h, scale 0 to 100, read-out: Plant response rating, Lambsquarters
How it was run: as §1

[7] = tested on: large (Lg) crabgrass (Digitaria sanguinalis); conditions: Digitaria sanguinalis, pre-emergence, 336 h, scale 0 to 100, read-out: Plant response rating, Crabgrass, Large
How it was run: as §1

[8] = tested on: morningglory (Ipomoea coccinea); conditions: Ipomoea, pre-emergence, 336 h, scale 0 to 100, read-out: Plant response rating, Morningglory
How it was run: as §1

[9] = tested on: pigweed (Amaranthus retroflexus); conditions: Amaranthus retroflexus, pre-emergence, 336 h, scale 0 to 100, read-out: Plant response rating, Pigweed
How it was run: as §1

[10] = tested on: ragweed (common ragweed, Ambrosia elatior); conditions: Ambrosia artemisiifolia, pre-emergence, 336 h, scale 0 to 100, read-out: Plant response rating, Ragweed
How it was run: as §1

soybean (Glycine max) = conditions: Glycine max, pre-emergence, scale 0 to 100, read-out: Plant response rating, Soybean
How it was run: as §1

[11] = tested on: velvetleaf (Abutilon theophrasti); conditions: Abutilon theophrasti, pre-emergence, scale 0 to 100, read-out: Plant response rating, Velvetleaf
How it was run: as §1

[12] = tested on: waterhemp (common waterhemp, Amaranthus rudis); conditions: Amaranthus tuberculatus, pre-emergence, scale 0 to 100, read-out: Plant response rating, Waterhemp
How it was run: as §1

[13] = tested on: winter wheat (Triticum aestivum); conditions: Triticum aestivum, pre-emergence, 336 h, scale 0 to 100, read-out: Plant response rating, Wheat
How it was run: as §1

**Q.** What does the source list for `N#Cc1cccc(Oc2ncc(Cl)cn2)c1Oc1ncc(Br)cn1` [Compound 4, 2-[(5-bromo-2-pyrimidinyl)oxy]-3-[(5-chloro-2-pyrimidinyl)oxy]benzonitrile]?
**A.** pest or weed control at 31 g/ha ([1]; 31 g ai/ha, preemergence): 5%; pest or weed control at 62 g/ha ([1]; 62 g ai/ha, preemergence): 45%; pest or weed control at 125 g/ha ([1]; 125 g ai/ha, preemergence): 70%; pest or weed control at 16 g/ha ([1]; Preemergence, 16 g ai/ha): 0%; pest or weed control at 31 g/ha ([2]; 31 g ai/ha, preemergence, scale 0 to 100): 60%; pest or weed control at 62 g/ha ([2]; 62 g ai/ha, preemergence, scale 0 to 100): 85%; pest or weed control at 125 g/ha ([2]; 125 g ai/ha, preemergence, scale 0 to 100): 100%; pest or weed control at 16 g/ha ([2]; Preemergence, 16 g ai/ha, scale 0 to 100 (0 no effect, 100 complete control)): 20%; Corn plant response rating (crop injury, 0 = no effect, 100 = complete kill) at 31 g/ha (corn (Zea mays); 31 g ai/ha, preemergence): 5%; Corn plant response rating (crop injury, 0 = no effect, 100 = complete kill) at 62 g/ha (corn (Zea mays); 62 g ai/ha, preemergence): 10%; Corn plant response rating (crop injury, 0 = no effect, 100 = complete kill) at 125 g/ha (corn (Zea mays); 125 g ai/ha, preemergence): 35%; Corn plant response rating (crop injury, 0 = no effect, 100 = complete kill) at 16 g/ha (corn (Zea mays); Preemergence, 16 g ai/ha): 0%; pest or weed control at 31 g/ha ([3]; 31 g ai/ha, preemergence): 30%; pest or weed control at 62 g/ha ([3]; 62 g ai/ha, preemergence): 30%; pest or weed control at 125 g/ha ([3]; 125 g ai/ha, preemergence): 100%; pest or weed control at 16 g/ha ([3]; Preemergence, 16 g ai/ha): 5%; pest or weed control at 31 g/ha ([4]; 31 g ai/ha, preemergence): 98%; pest or weed control at 62 g/ha ([4]; 62 g ai/ha, preemergence): 100%; pest or weed control at 125 g/ha ([4]; 125 g ai/ha, preemergence): 100%; pest or weed control at 16 g/ha ([4]; Preemergence, 16 g ai/ha): 10%; pest or weed control at 31 g/ha ([5]; 31 g ai/ha, preemergence): 15%; pest or weed control at 62 g/ha ([5]; 62 g ai/ha, preemergence): 80%; pest or weed control at 125 g/ha ([5]; 125 g ai/ha, preemergence): 98%; pest or weed control at 16 g/ha ([5]; Preemergence, 16 g ai/ha): 0%; pest or weed control at 31 g/ha ([6]; 31 g ai/ha, preemergence): 95%; pest or weed control at 62 g/ha ([6]; 62 g ai/ha, preemergence): 85%; pest or weed control at 125 g/ha ([6]; 125 g ai/ha, preemergence): 100%; pest or weed control at 16 g/ha ([6]; Preemergence, 16 g ai/ha): 75%; pest or weed control at 31 g/ha ([7]; 31 g ai/ha, preemergence): 100%; pest or weed control at 62 g/ha ([7]; 62 g ai/ha, preemergence): 100%; pest or weed control at 125 g/ha ([7]; 125 g ai/ha, preemergence): 100%; pest or weed control at 16 g/ha ([7]; Preemergence, 16 g ai/ha): 75%; pest or weed control at 31 g/ha ([8]; 31 g ai/ha, preemergence): 35%; pest or weed control at 62 g/ha ([8]; 62 g ai/ha, preemergence): 55%; pest or weed control at 125 g/ha ([8]; 125 g ai/ha, preemergence): 98%; pest or weed control at 16 g/ha ([8]; Preemergence, 16 g ai/ha): 5%; pest or weed control at 31 g/ha ([9]; 31 g ai/ha, preemergence): 100%; pest or weed control at 62 g/ha ([9]; 62 g ai/ha, preemergence): 70%; pest or weed control at 125 g/ha ([9]; 125 g ai/ha, preemergence): 100%; pest or weed control at 16 g/ha ([9]; Preemergence, 16 g ai/ha): 5%; pest or weed control at 31 g/ha ([10]; 31 g ai/ha, preemergence): 10%; pest or weed control at 62 g/ha ([10]; 62 g ai/ha, preemergence): 5%; pest or weed control at 125 g/ha ([10]; 125 g ai/ha, preemergence): 70%; pest or weed control at 16 g/ha ([10]; Preemergence, 16 g ai/ha): 0%; plant injury at 31 g/ha (soybean (Glycine max); 31 g ai/ha, preemergence): 30%; plant injury at 62 g/ha (soybean (Glycine max); 62 g ai/ha, preemergence): 50%; plant injury at 125 g/ha (soybean (Glycine max); 125 g ai/ha, preemergence): 95%; plant injury at 16 g/ha (soybean (Glycine max); Preemergence, 16 g ai/ha): 5%; pest or weed control at 31 g/ha ([11]; 31 g ai/ha, preemergence): 45%; pest or weed control at 62 g/ha ([11]; 62 g ai/ha, preemergence): 55%; pest or weed control at 125 g/ha ([11]; 125 g ai/ha, preemergence): 100%; pest or weed control at 16 g/ha ([11]; Preemergence, 16 g ai/ha): 5%; pest or weed control at 31 g/ha ([12]; 31 g ai/ha, preemergence): 100%; pest or weed control at 62 g/ha ([12]; 62 g ai/ha, preemergence): 100%; pest or weed control at 125 g/ha ([12]; 125 g ai/ha, preemergence): 100%; pest or weed control at 16 g/ha ([12]; Preemergence, 16 g ai/ha): 45%; plant injury at 31 g/ha ([13]; 31 g ai/ha, preemergence): 0%; plant injury at 62 g/ha ([13]; 62 g ai/ha, preemergence): 0%; plant injury at 125 g/ha ([13]; 125 g ai/ha, preemergence): 5%; plant injury at 16 g/ha ([13]; Preemergence, 16 g ai/ha): 0%
